Measurements reported in paper PMC9847679, “The anti-breast cancer stem cell properties of gold(I)-non-steroidal anti-inflammatory drug complexes” (Chemical Science, 2022).

What was measured:
HMLER-shEcad cells = assay: Mammosphere formation assay; type: cell-based, human; conditions: at IC20 value, single cell suspensions, 5 days incubation
Experimental: media. The final concentration of DMSO in each well was ≤1 %. After 72 h, 20 μl of MTT (4 mg mL-1 in PBS) was added to each well and the plates incubated for an additional 4 h at 37 °C. The media/MTT mixture was eliminated and DMSO (100 μl per well) was added to dissolve the formazan precipitates. The optical density was measured at 550 nm using a 96-well multiscanner autoreader. Absorbance values were normalised to (DMSO-containing) control wells and plotted as concentration of test compound versus % cell viability. IC50 values were interpolated from the resulting dose dependent curves. The reported IC50 values are the average of three independent experiments (n = 18).
Tumorsphere Formation and Viability Assay. […] Mammospheres treated with 1-3, 5-fluorouracil, capecitabine, cisplatin, carboplatin, and salinomycin (at their respective IC20 values, 5 days) were counted and imaged using an inverted microscope. The viability of the mammospheres was determined by addition of a resazurin-based reagent, TOX8 (Sigma). After incubation for 16 h, the fluorescence of the solutions was read at 590 nm (λex = 560 nm). […] Fluorescence values were normalised to DMSO-containing controls and plotted as concentration of test compound versus % mammospheres viability. […]
Cellular Uptake. […] The number of cells was counted at this stage, using a haemocytometer. […] Gold levels are expressed as mass of Au (ng) per million cells. […]

[1] = tested on: HMLER-shEcad mammospheres; assay: Mammosphere viability assay (TOX8); type: cell-based, human; conditions: 5 days incubation
Experimental: in ultralow-attachment 96-well plates (Corning) and incubated in MEGM supplemented with B27 (Invitrogen), 20 ng mL-1 EGF and 4 μg mL-1 heparin (Sigma) for 5 days. […] The viability of the mammospheres was determined by addition of a resazurin-based reagent, TOX8 (Sigma). After incubation for 16 h, the fluorescence of the solutions was read at 590 nm (λex = 560 nm). Viable mammospheres reduce the amount of the oxidised TOX8 form (blue) and concurrently increase the amount of the fluorescent TOX8 intermediate (red), indicating the degree of mammosphere cytotoxicity caused by the test compound. Fluorescence values were normalised to DMSO-containing controls and plotted as concentration of test compound versus % mammospheres viability. IC50 values were interpolated from the resulting dose dependent curves. The reported IC50 values are the average of three independent experiments, each consisting of two replicates per concentration level (overall n = 6).

[2] = Water-octanol partition coefficient (shake-flask, UV-vis); type: physicochemical; conditions: room temperature 24 h
Experimental: Measurement of water-octanol partition coefficient (LogP). The LogP values for 1-8 were determined using the shake-flask method and UV-vis spectroscopy. The 1-octanol used in this experiment was pre-saturated with water. An aqueous solution of 1-8 (500 μL, 100 μM) was incubated with 1-octanol (500 μL) in a 1.5 mL tube. The tube was shaken at room temperature for 24 h. The two phases were separated by centrifugation and the 1-8 content in each phase was determined by UV-vis spectroscopy. […]

COX-2 = COX-2 expression assay (flow cytometry); type: cell-based, human; conditions: LPS 2.5 μM 24 h pre-treatment; 1 at IC50 value or indomethacin 20 μM, 48 h
Experimental: COX-2 Expression Assay. HMLER-shEcad cells were seeded in 6-well plates (at a density […]
indomethacin (20 μM) and incubated for a further 48 h. The cells were then harvested by trypsinisation, fixed with 4% paraformaldehyde (at 37 °C for 10 min), permeabilised with ice-cold methanol (for 30 min), and suspended in PBS (200 μL). […]
labelled anti-COX-2 antibody (5 μL) was then added to the cell suspension and incubated in the dark for 1 h. The cells were then washed with PBS (1 mL) and analysed using a FACSCanto II flow cytometer (BD Biosciences) (10,000 events per sample were acquired) at the University of Leicester FACS Facility. The FL1 channel was used to assess COX-2 expression. Cell populations were analysed using the FlowJo software (Tree Star).
COX-2 Inhibition Enzyme Immunoassay (EIA). […]
(ovine) Inhibitor Screening Assay (Cayman Chemicals).” The assay was performed according to the manuf acturer’s instructions using a 96-well plate set up.

COc1ccc2c(c1)c(CC(=O)[O][Au][PH](c1ccccc1)(c1ccccc1)c1ccccc1)c(C)n2C(=O)c1ccc(Cl)cc1 [complex 1]
number and size of mammospheres formed (HMLER-shEcad cells): greatest inhibitory effect
IC50 [1]: 2000 ± 100 nM
LogP value [2]: 1.64 ± 0.42
COX-2 expression (COX-2): decreased
